Data on 23 molecules can be found in patent publication US20260374754A1, “N-((ISOQUINOLIN-6-YL)METHYL)-1H-PYRAZOLE-4-CARBOXAMIDE DERIVATIVES AS PLASMA KALLIKREIN INHIBITORS FOR THE TREATMENT OF HEREDITARY ANGIODEMA” (Takeda Pharmaceutical Company Limited, priority 2022, published 2026).

The target of this assay is human activated kallikrein enzyme (Homo sapiens, UniProt P03952). Briefly: Inhibition of human activated plasma kallikrein, fluorogenic PFR-AMC substrate, 500 pM enzyme format. Type of assay: biochemical. The following applies: 500 pM activated kallikrein; 300 μM PFR-AMC; 30 min preincubation; 10 min room temperature; pH 7.5; read-out: Primary Dose Response Assay: Average EC50. Summed up:
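500 pM activated kallikrein preincubated 30 min at room temperature with inhibitors in pH 7.5 Tris/EDTA/NaCl buffer with PEG-400 and Triton X-100. Reaction started with 300 μM PFR-AMC, run 10 min at room temperature; AMC fluorescence read at ex 380/em 460 nm.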

Where a name gives a salt, the structure may show the parent alone.

human activated kallikrein enzyme, sequence (P03952 391-638 limits assumed): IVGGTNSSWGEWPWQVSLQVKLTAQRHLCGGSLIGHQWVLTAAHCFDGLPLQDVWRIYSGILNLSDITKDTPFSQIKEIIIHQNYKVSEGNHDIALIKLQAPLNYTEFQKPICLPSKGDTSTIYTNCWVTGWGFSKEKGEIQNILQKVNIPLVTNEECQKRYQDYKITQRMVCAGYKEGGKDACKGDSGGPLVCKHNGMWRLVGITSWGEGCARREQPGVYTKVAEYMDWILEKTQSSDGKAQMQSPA
human activated kallikrein enzyme, sequence (P03952 20-390 partner limits assumed): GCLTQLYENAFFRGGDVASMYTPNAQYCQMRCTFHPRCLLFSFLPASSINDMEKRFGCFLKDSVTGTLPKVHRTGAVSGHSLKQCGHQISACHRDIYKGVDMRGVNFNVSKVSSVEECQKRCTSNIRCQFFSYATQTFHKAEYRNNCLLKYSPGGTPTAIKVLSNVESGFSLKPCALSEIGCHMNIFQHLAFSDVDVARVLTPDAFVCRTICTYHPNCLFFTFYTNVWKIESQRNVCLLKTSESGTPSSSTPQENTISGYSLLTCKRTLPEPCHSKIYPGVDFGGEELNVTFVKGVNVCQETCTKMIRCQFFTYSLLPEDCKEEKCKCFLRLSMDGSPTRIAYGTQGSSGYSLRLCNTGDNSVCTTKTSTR

`Cc1cc2c(N)nccc2c(C)c1CNc1cc(NCc2ccc3ncc(Cl)cc3c2)ncn1` [Example 309, N^4-((1-amino-5,7-dimethylisoquinolin-6-yl)methyl)-N^6-((3-chloroquinolin-6-yl)methyl)pyrimidine-4,6-diamine]: the EC50 – broadly, the concentration that produces a half-maximal response – is less than 1 nM. As to `Cc1cc2c(N)nccc2c(C)c1CNc1cc(NC(C)c2ccc3ncc(Cl)cc3c2)ncn1` (centres unmarked) [Example 310, N^4-((1-amino-5,7-dimethylisoquinolin-6-yl)methyl)-N^6-(1-(3-chloroquinolin-6-yl)ethyl)pyrimidine-4,6-diamine], the EC50 was less than 1 nM. The result for `Cc1cnc2cc(CNc3cc(NCc4c(C)cc5c(N)nccc5c4C)ncn3)ccc2c1` [Example 311, N^4-((1-amino-5,7-dimethylisoquinolin-6-yl)methyl)-N^6-((3-methylquinolin-7-yl)methyl)pyrimidine-4,6-diamine] reads 1 to 10 nM. Take `Cc1cc2c(N)nccc2c(C)c1CNc1cc(NCc2ccc3ncc(C(F)(F)F)cc3c2)ncn1` [Example 312, N^4-((1-amino-5,7-dimethylisoquinolin-6-yl)methyl)-N^6-((3-(trifluoromethyl)quinolin-6-yl)methyl)pyrimidine-4,6-diamine]: the EC50 is less than 1 nM.

With `Cc1cc2c(N)nccc2c(C)c1CNc1cc(NCc2cc3ccccc3cn2)ncn1` [Example 315, N^4-((1-amino-5,7-dimethylisoquinolin-6-yl)methyl)-N^6-(isoquinolin-3-ylmethyl)pyrimidine-4,6-diamine], the EC50 was 1 to 10 nM. The value for `Cc1cc2c(N)nccc2c(C)c1CNc1cc(N(C)Cc2cnc3ccccc3c2)ncn1` [Example 316, N^4-((1-amino-5,7-dimethylisoquinolin-6-yl)methyl)-N^6-methyl-N^6-(quinolin-3-ylmethyl)pyrimidine-4,6-diamine] was 10 to 100 nM. As to `Cc1cc2c(N)nccc2c(C)c1CNc1cc(NCc2cnc3ccccc3c2)ncn1` [Example 317, N^4-((1-amino-5,7-dimethylisoquinolin-6-yl)methyl)-N^6-(quinolin-3-ylmethyl)pyrimidine-4,6-diamine, formic acid salt], the EC50 was 1 to 10 nM. The value for `COc1ccc2cc(CN(C)c3cc(NCc4c(C)cc5c(N)nccc5c4C)ncn3)ccc2c1` [Example 318, N^4-((1-amino-5,7-dimethylisoquinolin-6-yl)methyl)-N^6_((6-methoxynaphthalen-2-yl)methyl)-N^6-methylpyrimidine-4,6-diamine] was 100 to 1000 nM; that for `Cc1cc2c(N)nccc2c(C)c1CNc1cc(NCc2nc3ccccc3s2)ncn1` [Example 319, N^4-((1-amino-5,7-dimethylisoquinolin-6-yl)methyl)-N6-(benzo[d]thiazol-2-ylmethyl)pyrimidine-4,6-diamine] was 100 to 1000 nM; that for `Cc1cc2c(N)nccc2c(C)c1CNc1cc(NCc2ccc3cnccc3c2)ncn1` [Example 320, N^4-((1-amino-5,7-dimethylisoquinolin-6-yl)methyl)-N^6-(isoquinolin-6-ylmethyl)pyrimidine-4,6-diamine] was 1 to 10 nM. `Cc1cc2c(N)nccc2c(C)c1CNc1cc(NCc2cn3ccccc3n2)ncn1` [Example 321, N^4-((1-amino-5,7-dimethylisoquinolin-6-yl)methyl)-N^6-(imidazo[1,2-a]pyridin-2-ylmethyl)pyrimidine-4,6-diamine]: the EC50 is 1 to 10 nM. The result for `Cc1ccn2cc(CNc3cc(NCc4c(C)cc5c(N)nccc5c4C)ncn3)nc2c1` [Example 322, N^4-((1-amino-5,7-dimethylisoquinolin-6-yl)methyl)-N^6-((7-methylimidazo[1,2-a]pyridin-2-yl)methyl)pyrimidine-4,6-diamine] reads 1 to 10 nM. The value for `COc1ccnc2ccc(CNc3cc(NCc4c(C)cc5c(N)nccc5c4C)ncn3)cc12` [Example 323, N^4-((1-amino-5,7-dimethylisoquinolin-6-yl)methyl)-N^6-((4-methoxyquinolin-6-yl)methyl)pyrimidine-4,6-diamine] was 1 to 10 nM; that for `Cc1cc2c(N)nccc2c(C)c1CNc1cc(NCc2ccc3nccc(C)c3c2)ncn1` [Example 324, N^4-((1-amino-5,7-dimethylisoquinolin-6-yl)methyl)-N^6-((4-methylquinolin-6-yl)methyl)pyrimidine-4,6-diamine] was 1 to 10 nM. Regarding `Cc1cc2cc(CNc3cc(NCc4c(C)cc5c(N)nccc5c4C)ncn3)cnc2cc1C` [Example 325, N^4-((1-amino-5,7-dimethylisoquinolin-6-yl)methyl)-N^6-((6,7-dimethylquinolin-3-yl)methyl)pyrimidine-4,6-diamine], the EC50 was in the range of 1 to 10 nM. Turning to `Cc1cc2c(N)nccc2c(C)c1CNc1cc(NCc2ccc3c(c2)OCCN3C)ncn1` [Example 326, N^4-((1-amino-5,7-dimethylisoquinolin-6-yl)methyl)-N^6-((4-methyl-3,4-dihydro-2H-benzo[b][1,4]oxazin-7-yl)methyl)pyrimidine-4,6-diamine, formic acid salt], the concentration giving a half-maximal response (EC50) is 1 to 10 nM. The value for `Cc1cc2c(N)nccc2c(C)c1CNc1cc(NCc2ccc3c(c2)N(C)C(=O)CO3)ncn1` [Example 327, 6-(((6-(((1-amino-5,7-dimethylisoquinolin-6-yl)methyl)amino)pyrimidin-4-yl)amino)methyl)-4-methyl-2H-benzo[b][1,4]oxazin-3(4H)-one, formic acid salt] was 1 to 10 nM.

For `Cc1cc2c(N)nccc2c(C)c1CNc1cc(NCc2cc3c(Cl)cccc3cn2)ncn1` [Example 328, N^4-((1-amino-5,7-dimethylisoquinolin-6-yl)methyl)-N^6-((5-chloroisoquinolin-3-yl)methyl)pyrimidine-4,6-diamine, formic acid salt], the EC50 is 1 to 10 nM. With `Cc1cc2c(N)nccc2c(C)c1CNc1cc(NCc2cn3cc(C(F)(F)F)ccc3n2)ncn1` [Example 329, N^4-((1-amino-5,7-dimethylisoquinolin-6-yl)methyl)-N^6-((6-(trifluoromethyl)imidazo[1,2-a]pyridin-2-yl)methyl)pyrimidine-4,6-diamine], the EC50 was less than 1 nM. The result for `Cc1cc2c(N)nccc2c(C)c1CNc1cc(NCc2cn3c(C)c(Cl)ccc3n2)ncn1` [Example 330, N^4-((1-amino-5,7-dimethylisoquinolin-6-yl)methyl)-N^6-((6-chloro-5-methylimidazo[1,2-a]pyridin-2-yl)methyl)pyrimidine-4,6-diamine] reads less than 1 nM.

As to `Cc1cc2c(N)nccc2c(C)c1CNc1cc(NCc2cn3cc(C#N)ccc3n2)ncn1` [Example 332, 2-(((6-(((1-amino-5,7-dimethylisoquinolin-6-yl)methyl)amino)pyrimidin-4-yl)amino)methyl)imidazo[1,2-a]pyridine-6-carbonitrile], the EC50 is 1 to 10 nM. The result for `Cc1ccc2nc(CNc3cc(NCc4c(C)cc5c(N)nccc5c4C)ncn3)cn2c1` [Example 333, N^4-((1-amino-5,7-dimethylisoquinolin-6-yl)methyl)-N^6-((6-methylimidazo[1,2-a]pyridin-2-yl)methyl)pyrimidine-4,6-diamine] reads less than 1 nM; that for `Cc1cc2c(N)nccc2c(C)c1CNc1cc(NCc2ccc3ncc(F)cc3c2)ncn1` [Example 334, N^4-((1-amino-5,7-dimethylisoquinolin-6-yl)methyl)-N^6-((3-fluoroquinolin-6-yl)methyl)pyrimidine-4,6-diamine], less than 1 nM.
